From publication doi:10.1101/2025.08.06.668955, “High-Affinity, Structure-Validated and Selective Macrocyclic Peptide Tools for Chemical Biology Studies of Huntingtin” (bioRxiv, 2025)
Where a SMILES comes first, the peptide text is derived from it. Bridges are numbered along the chain shown (N, C = ends).

Test system: HTT
Assay: HL2 macrocycle pulldown from isogenic neuronal progenitor cells (NPCs), LC-MS/MS
Format: binding, human
Settings: isogenic NPC lines Q30/Q19, Q45/Q19 and Q81/Q27
Text: We extended our analysis to isogenic neuronal progenitor cells (NPCs), which more closely resemble the neuronal populations affected in HD, both functionally and in terms of gene expression profiles ([Ooi et al., 2019]). […] Thus, we compared HL2 protein enrichment profiles across isogenic NPC lines harboring non-expanded (Q30/Q19) and expanded CAG repeats (Q45/Q19 and Q81/Q27).
Successful macrocycle-mediated pulldown was first confirmed by western blot in all NPC lines (Supplementary Figure 14a). […] HTT and HAP40 were the only proteins consistently overlapping across all three NPC lines (Supplementary Figure 14b). […]
Cells were harvested by centrifugation at 1,500 rpm for 5 minutes, washed twice with PBS, and snap-frozen. […] Protein concentration was determined by BCA assay (Thermo Fisher Scientific, 23225), yielding approximately 4 mg of protein on average. […]
All sample preparation, LC MS/MS data collection, and MS data searches were carried out at the SPARC BioCentre at The Hospital for Sick Children (Toronto, ON, Canada). […] Samples were analyzed by liquid chromatography tandem mass spectrometry (LC-MS/MS) using an EASY-nanoLC 1200 system with a 1 h analysis and an Orbitrap Fusion™ Lumos™ Tribrid™ Mass Spectrometer (Thermo Fisher Scientific). […]

**Q.** For CC(C)C[C@@H]1NC(=O)[C@H](Cc2ccc(O)cc2)NC(=O)[C@H](CCCNC(=N)N)NC(=O)[C@H](C)NC(=O)[C@H]([C@@H](C)O)NC(=O)[C@H](Cc2ccc(O)cc2)NC(=O)CSC[C@@H](C(N)=O)NC(=O)[C@H](CCCCN)NC(=O)[C@H](Cc2ccc(O)cc2)NC(=O)[C@H](Cc2c[nH]cn2)NC(=O)[C@H](CC(C)C)NC(=O)[C@H]([C@@H](C)O)NC(=O)CNC(=O)[C@H](CC(C)C)NC(=O)[C@H]([C@@H](C)O)NC1=O [HL2] ({CH2CO}-YTARYLTLGTLHYKC-NH2; thioether N-15; C-terminus assumed), which “Enrichment of HTT in HL2 pulldown from NPC lines by LC-MS/MS” value is on record?
**A.** The value was “most abundantly enriched protein across all lines”.
